In patent US11672251B2, “Herbicidally active pyridyl-/pyrimidyl-pyrimidine derivatives” (Syngenta Participations AG, priority 2017, dated 2023):

Tests used:
Assay type in all cases: in vivo
[1] = system: Alopecurus myosuroides (ALOMY); experiment: B1 pre-emergence herbicidal activity; conditions: Test 1b, rate 1000 g/ha, evaluated after 13 days, scale 5=total damage to plant, 0=no damage to plant
Experimental: (§1) Seeds of a variety of test species were sown in standard soil in pots: Triticum aestivium (TRZAW), Avena fatua (AVEFA), Alopecurus myosuroides (ALOMY), Echinochloa crus-galli (ECHCG), Lolium perenne (LOLPE), Zea Mays (ZEAMX), Abutilon theophrasti (ABUTH), Amaranthus retroflexus (AMARE) and Setaria faberi (SETFA). After cultivation for one day (pre-emergence) under controlled conditions in a glasshouse (at 24/16° C., day/night; 14 hours light; 65% humidity), the plants were sprayed with an aqueous spray solution derived from the formulation of the technical active ingredient in acetone/water (50:50) solution containing 0.5% Tween 20 (polyoxyethelyene sorbitan monolaurate, CAS RN 9005-64-5). The test plants were then grown in a glasshouse under controlled conditions (at 24/16° C., day/night; 14 hours light; 65% humidity) and watered twice daily. After 13 days, the test was evaluated (5=total damage to plant; 0=no damage to plant).

[2] = system: Avena fatua (AVEFA); experiment: B1 pre-emergence herbicidal activity; conditions: Test 1b, rate 1000 g/ha, evaluated after 13 days, scale 5=total damage to plant, 0=no damage to plant
Experimental: as §1

[3] = system: Echinochloa crus-galli (ECHCG); experiment: B1 pre-emergence herbicidal activity; conditions: Test 1b, rate 1000 g/ha, evaluated after 13 days, scale 5=total damage to plant, 0=no damage to plant
Experimental: as §1

[4] = system: Lolium perenne (LOLPE); experiment: B1 pre-emergence herbicidal activity; conditions: Test 1b, rate 1000 g/ha, evaluated after 13 days, scale 5=total damage to plant, 0=no damage to plant
Experimental: as §1

[5] = system: Setaria faberi (SETFA); experiment: B1 pre-emergence herbicidal activity; conditions: Test 1b, rate 1000 g/ha, evaluated after 13 days, scale 5=total damage to plant, 0=no damage to plant
Experimental: as §1

[6] = system: Triticum aestivium (TRZAW); experiment: B1 pre-emergence herbicidal activity; conditions: Test 1b, rate 1000 g/ha, evaluated after 13 days, scale 5=total damage to plant, 0=no damage to plant
Experimental: as §1

[7] = system: Alopecurus myosuroides (ALOMY); experiment: B2 post-emergence herbicidal activity; conditions: Test B2b; post-emergence (sprayed after 8 days cultivation); rate 1000 g/ha; evaluated after 13 days; scale 5=total damage to plant, 0=no damage to plant
Experimental: (§2) Seeds of a variety of test species were sown in standard soil in pots: Triticum aestivium (TRZAW), Avena fatua (AVEFA), Alopecurus myosuroides (ALOMY), Echinochloa crus-galli (ECHCG), Lolium perenne (LOLPE), Zea Mays (ZEAMX), Abutilon theophrasti (ABUTH), Amaranthus retroflexus (AMARE) and Setaria faberi (SETFA). After 8 days cultivation (post-emergence) under controlled conditions in a glasshouse (at 24/16° C., day/night; 14 hours light; 65% humidity), the plants were sprayed with an aqueous spray solution derived from the formulation of the technical active ingredient in acetone/water (50:50) solution containing 0.5% Tween 20 (polyoxyethelyene sorbitan monolaurate, CAS RN 9005-64-5). The test plants were then grown in a glasshouse under controlled conditions (at 24/16° C., day/night; 14 hours light; 65% humidity) and watered twice daily. After 13 days, the test was evaluated (5=total damage to plant; 0=no damage to plant).

[8] = system: Avena fatua (AVEFA); experiment: B2 post-emergence herbicidal activity; conditions: Test B2b; post-emergence (sprayed after 8 days cultivation); rate 1000 g/ha; evaluated after 13 days; scale 5=total damage to plant, 0=no damage to plant
Experimental: as §2

[9] = system: Echinochloa crus-galli (ECHCG); experiment: B2 post-emergence herbicidal activity; conditions: Test B2b; post-emergence (sprayed after 8 days cultivation); rate 1000 g/ha; evaluated after 13 days; scale 5=total damage to plant, 0=no damage to plant
Experimental: as §2

[10] = system: Lolium perenne (LOLPE); experiment: B2 post-emergence herbicidal activity; conditions: Test B2b; post-emergence (sprayed after 8 days cultivation); rate 1000 g/ha; evaluated after 13 days; scale 5=total damage to plant, 0=no damage to plant
Experimental: as §2

[11] = system: Setaria faberi (SETFA); experiment: B2 post-emergence herbicidal activity; conditions: Test B2b; post-emergence (sprayed after 8 days cultivation); rate 1000 g/ha; evaluated after 13 days; scale 5=total damage to plant, 0=no damage to plant
Experimental: as §2

[12] = system: Triticum aestivium (TRZAW); experiment: B2 post-emergence herbicidal activity; conditions: Test B2b; post-emergence (sprayed after 8 days cultivation); rate 1000 g/ha; evaluated after 13 days; scale 5=total damage to plant, 0=no damage to plant
Experimental: as §2

Structure (SMILES)	Control after pre-emergence application, damage score: ALOMY [1]	Control after pre-emergence application, damage score: AVEFA [2]	Control after pre-emergence application, damage score: ECHCG [3]	Control after pre-emergence application, damage score: LOLPE [4]	Control after pre-emergence application, damage score: SETFA [5]	Control after pre-emergence application, damage score: TRAZW [6]	Control after post-emergence application, damage score: ALOMY [7]	Control after post-emergence application, damage score: AVEFA [8]	Control after post-emergence application, damage score: ECHCG [9]	Control after post-emergence application, damage score: LOLPE [10]	Control after post-emergence application, damage score: SETFA [11]	Control after post-emergence application, damage score: TRAZW [12]
Cc1nc(-c2cncnc2)ncc1N [Compound D3, 4-methyl-2-pyrimidin-5-yl-pyrimidin-5-amine]	0	0	1	1	2	0	1	1	2	1	3	0
CNc1cnc(-c2cncnc2)nc1C [Compound D4]	0	0	0	1	2	0	1	0	1	1	1	0
Nc1cnc(-c2cncc(F)c2)nc1C(F)(F)F [Compound D5, 2-(5-fluoro-3-pyridyl)-4-(trifluoromethyl)pyrimidin-5-amine]	1	4	4	1	5	0	1	4	4	3	5	1
CNc1cnc(-c2cncc(F)c2)nc1C(F)(F)F [Compound D6]	0	1	4	1	4	0	0	2	5	3	5	1
C=CCNc1cnc(-c2cncnc2)nc1C [Compound D7]	0	1	2	1	4	0	0	1	2	0	4	1
CN(C)c1cnc(-c2cncc(F)c2)nc1C(F)(F)F [Compound D8]	0	1	2	1	4	0	0	1	4	0	5	0
Nc1cnc(-c2cncnc2)nc1C(F)(F)F [Compound D9]	0	2	3	1	4	0	0	3	3	2	5	0
N#Cc1cncc(-c2ncc(N)c(C(F)(F)F)n2)c1 [Compound D10, 5-[5-amino-4-(trifluoromethyl)pyrimidin-2-yl]pyridine-3-carbonitrile]	0	0	0	0	3	0	0	1	3	1	4	1
Fc1cncc(-c2ncc(NCc3nccs3)c(C(F)(F)F)n2)c1 [Compound D15]	0	1	4	0	5	0	1		5	2	5	0
